Assays:
cisplatin-induced emesis = details: ferrets; higher dosages; cited from earlier work
[1] = test system: chemotherapy-induced nausea and vomiting (cisplatin or cyclophosphamide with epirubicin or doxorubicin); assay: Study 2: randomised, double blind Phase II study of oral amisulpride for prevention of acute and delayed phase chemotherapy-induced nausea and vomiting; assay type: in vivo, human
Description: A randomised, double blind Phase II clinical study was conducted to characterise the dose-response of oral amisulpride for the prevention of acute and delayed phase nausea and vomiting in male and female patients. The patent population consisted of adult, chemotherapy-naïve cancer patients, receiving a first infusion of either cisplatin chemotherapy at a dose of 70 mg/m^2 or greater, or a combination of cyclophosphamide (500-1500 mg/m^2) and either epirubicin (60-100 mg/m^2) or doxorubicin (40-60 mg/m^2) for breast cancer. All patients received an intravenous injection of 20 mg of amisulpride (racemic mixture) and an intravenous injection of 8-16 mg ondansetron on the day of chemotherapy administration (i.e. day 1). The oral doses of amisulpride (racemic mixture) studied, along with placebo, were 10 mg, 20 mg or 40 mg each administered once per day on days 2-4 after chemotherapy. Specifically one capsule of amisulpride or its matching placebo, were taken as early as practically possible after waking of the patients each morning on days 2, 3 and 4. […] “Delayed phase response” means complete response (composite endpoint defined as no voting/retching and no use of rescue medication) in the period 24-120 hrs after chemo. There are other benefits of using a kit of the invention compared to three-drug regimen, such as reduced side-effects and better patient compliance.

[2] = test system: cisplatin-induced nausea and vomiting; assay: Study 1: open label, ascending dose Phase II study of intravenous amisulpride in the prevention of cisplatin-induced nausea and vomiting; assay type: in vivo, human
Description: This study was designed to find the optimum dose range of IV amisulpride for the kit and method of the invention. This was an open label, ascending dose, Phase II study to determine the minimum effective dose of intravenous amisulpride in the prevention of cisplatin-induced nausea and vomiting. The number of patients evaluated was 51. Doses of amisulpride (racemic mixture) administered were 2.5, 7.5 and 20 mg. A 20 mg dose of amisulpride was also administered with a standard dose of IV ondansetron.

[3] = oral 10 mg AMI days 2-4 after IV OND + 20 mg AMI day 1, all subjects
[4] = oral 10 mg AMI days 2-4 after IV OND + 20 mg AMI day 1, patients with acute phase CR
[5] = oral 20 mg AMI days 2-4 after IV OND + 20 mg AMI day 1, all subjects
[6] = oral 20 mg AMI days 2-4 after IV OND + 20 mg AMI day 1, patients with acute phase CR
[7] = oral 40 mg AMI days 2-4 after IV OND + 20 mg AMI day 1, all subjects
[8] = oral 40 mg AMI days 2-4 after IV OND + 20 mg AMI day 1, patients with acute phase CR

For `CCN1CCCC1CNC(=O)c1cc(S(=O)(=O)CC)c(N)cc1OC` (racemic) [amisulpride], the “inhibiting cisplatin-induced emesis, dose dependence in words” value (cisplatin-induced emesis) is listed as “less effective at higher dosages”, the “Delayed phase response (complete response 24-120 hrs after chemo), in words” value ([1]; 10 mg oral amisulpride days 2-4, acute-phase responders) is listed as “significantly better than placebo” and the “CR, 0-120 h” value [1, 3] is listed as 36%. For the same compound, the “CR, 0-120 h (number of subjects)” value [1, 3] was 21, the “CR, 24-120 h” value [1, 3] was 46% and the “CR, 24-120 h (number of subjects)” value [1, 3] was 27. The “Nausea, 0-120 h” value [1, 3] was 68%, the “Nausea, 0-120 h (number of subjects)” value [1, 3] was 40 and the “Nausea, 24-120 h” value [1, 3] was 63%. For the same compound, the “Nausea, 24-120 h (number of subjects)” value [1, 3] was 37, the “Rescue medication use, 0-120 h” value [1, 3] was 54% and the “Rescue medication use, 0-120 h (number of subjects)” value [1, 3] was 32. The “Rescue medication use, 24-120 h” value [1, 3] was 41%, the “Rescue medication use, 24-120 h (number of subjects)” value [1, 3] was 26 and the “Vomiting, 0-120 h” value [1, 3] was 59%. The “Vomiting, 0-120 h (number of subjects)” value [1, 3] was 35, the “Vomiting, 24-120 h” value [1, 3] was 46% and the “Vomiting, 24-120 h (number of subjects)” value [1, 3] was 27. For the same compound, the “CR, 24-120 h” value ([1]; oral 10 mg AMI days 2-4 after IV OND + 20 mg AMI day 1, all subjects, listed as AMI) was 46%, the “CR, 24-120 h” value [1, 4] was 75% and the “CR, 24-120 h (number of subjects)” value [1, 4] was 21. The “Nausea, 24-120 h” value [1, 4] was 32%, the “Nausea, 24-120 h (number of subjects)” value [1, 4] was 9 and the “Rescue medication use, 24-120 h” value [1, 4] was 14%. For the same compound, the “Rescue medication use, 24-120 h (number of subjects)” value [1, 4] was 4, the “Vomiting, 24-120 h” value [1, 4] was 21% and the “Vomiting, 24-120 h (number of subjects)” value [1, 4] was 6. The “CR, 0-120 h” value [1, 5] was 25%, the “CR, 0-120 h (number of subjects)” value [1, 5] was 17 and the “CR, 24-120 h” value [1, 5] was 31%. For the same compound, the “CR, 24-120 h (number of subjects)” value [1, 5] was 21, the “Nausea, 0-120 h” value [1, 5] was 72% and the “Nausea, 0-120 h (number of subjects)” value [1, 5] was 48. The “Nausea, 24-120 h” value [1, 5] was 69%, the “Nausea, 24-120 h (number of subjects)” value [1, 5] was 46 and the “Rescue medication use, 0-120 h” value [1, 5] was 55%. The “Rescue medication use, 0-120 h (number of subjects)” value [1, 5] was 37, the “Rescue medication use, 24-120 h” value [1, 5] was 54% and the “Rescue medication use, 24-120 h (number of subjects)” value [1, 5] was 36. For the same compound, the “Vomiting, 0-120 h” value [1, 5] was 70%, the “Vomiting, 0-120 h (number of subjects)” value [1, 5] was 47 and the “Vomiting, 24-120 h” value [1, 5] was 55%. The “Vomiting, 24-120 h (number of subjects)” value [1, 5] was 37, the “CR, 24-120 h” value [1, 6] was 57% and the “CR, 24-120 h (number of subjects)” value [1, 6] was 17. For the same compound, the “Nausea, 24-120 h” value [1, 6] was 47%, the “Nausea, 24-120 h (number of subjects)” value [1, 6] was 14 and the “Rescue medication use, 24-120 h” value [1, 6] was 23%. For the same compound, the “Rescue medication use, 24-120 h (number of subjects)” value [1, 6] was 7, the “Vomiting, 24-120 h” value [1, 6] was 43% and the “Vomiting, 24-120 h (number of subjects)” value [1, 6] was 13. For the same compound, the “CR, 0-120 h” value [1, 7] was 27%, the “CR, 0-120 h (number of subjects)” value [1, 7] was 17 and the “CR, 24-120 h” value [1, 7] was 31%. For the same compound, the “CR, 24-120 h (number of subjects)” value [1, 7] was 20, the “Nausea, 0-120 h” value [1, 7] was 77% and the “Nausea, 0-120 h (number of subjects)” value [1, 7] was 49. For the same compound, the “Nausea, 24-120 h” value [1, 7] was 72%, the “Nausea, 24-120 h (number of subjects)” value [1, 7] was 46 and the “Rescue medication use, 0-120 h” value [1, 7] was 58%. The “Rescue medication use, 0-120 h (number of subjects)” value [1, 7] was 37, the “Rescue medication use, 24-120 h” value [1, 7] was 56% and the “Rescue medication use, 24-120 h (number of subjects)” value [1, 7] was 36. For the same compound, the “Vomiting, 0-120 h” value [1, 7] was 66%, the “Vomiting, 0-120 h (number of subjects)” value [1, 7] was 42 and the “Vomiting, 24-120 h” value [1, 7] was 58%. For the same compound, the “Vomiting, 24-120 h (number of subjects)” value [1, 7] was 37, the “CR, 24-120 h” value [1, 8] was 47% and the “CR, 24-120 h (number of subjects)” value [1, 8] was 17. For the same compound, the “Nausea, 24-120 h” value [1, 8] was 61%, the “Nausea, 24-120 h (number of subjects)” value [1, 8] was 22 and the “Rescue medication use, 24-120 h” value [1, 8] was 36%. The “Rescue medication use, 24-120 h (number of subjects)” value [1, 8] was 13, the “Vomiting, 24-120 h” value [1, 8] was 47% and the “Vomiting, 24-120 h (number of subjects)” value [1, 8] was 17. The “No emesis (vomiting/retching)” value ([2]; 2.5 mg IV amisulpride) was 0/5, the No significant nausea ([2]; 2.5 mg IV amisulpride) was 1/5 and the “No emesis (vomiting/retching)” value ([2]; 7.5 mg IV amisulpride) was 0/5. The No significant nausea ([2]; 7.5 mg IV amisulpride) was 1/5, the “No emesis (vomiting/retching)” value ([2]; 20 mg IV amisulpride) was 3/18 and the No significant nausea ([2]; 20 mg IV amisulpride) was 12/18. The “Protection from nausea, dose-relationship” value ([2]; IV amisulpride from 2.5 mg to 20 mg) was “positive dose-relationship”.
